11 molecules from patent publication US9321773B2, “Compounds” (Respivert Ltd, priority 2009, dated 2016) can be followed below.

For one data set, the target named is recombinant PI3 kinase α (Homo sapiens (Human), UniProt P42336). The data set can be described thus: Enzyme Inhibition Assay (HTRF PI3K enzyme assay, TR-FRET). It is filed as biochemical. Particulars: activity range; read-out: PI3 Kinase Inhibition IC50 values at stated Isozyme α. An excerpt: (§1) PI3 kinases catalyse the phosphorylation of phosphatidylinositol 4,5-biphosphate (PIP2) to phosphatidylinositol 3,4,5-triphosphate (PIP3) in the presence of ATP and Mg^2+ ions. The PIP3 product can be detected by displacement of biotin-PIP3 from energy transfer complexes consisting of europium labelled anti-GST monoclonal antibody, a GST-tagged Pleckstrin homology (PH) domain, biotinylated PIP3 and streptavidin-allophycocyanin (APC) by the time-resolved fluorescence resonance energy transfer (TR-FRET) (HTRF® PI3K enzyme assay, Millipore). […] The PIP3 product formed by PI3K activity displaces biotin-PIP3 from the complex and results in a loss of energy transfer (decreasing signal).
(§2) The compound to be tested was added, at the desired final concentrations, to a mixture of PIP2 substrate and recombinant PI3 kinase α, δ or γ enzymes (Millipore), and the mixture incubated for 2 hr at RT. […] A stopping solution containing biotinylated PIP3 and the detection mix containing the GST tagged GRP1 pleckstrin homology (PH) domain and fluorophores were then added and the mixture was incubated at RT for 15-18 hr, prior to detection in a fluorescence microplate reader (Varioskan® Flash, ThermoFisher Scientific).

The next data set concerns the target recombinant PI3 kinase γ (Homo sapiens (Human), UniProt P48736). The data set is described as above. It is filed as biochemical. Particulars: activity range; read-out: PI3 Kinase Inhibition IC50 values at stated Isozyme γ.
From the text: as §1, §2

For another data set, the target named is recombinant PI3 kinase δ (Homo sapiens (Human), UniProt O00329). The data set is described as above. It is filed as biochemical. Particulars: activity range; read-out: PI3 Kinase Inhibition IC50 values at stated Isozyme δ.
From the text: as §1, §2

Data set [1] deals with H2O2 induced pAkt in D-U937 cells. The experiment in a line: PI3Kδ Cell Based Assay (H2O2 induced pAkt). As to conditions: Homo sapiens, dU937; activity range; D-U937 cells; read-out: Cellular Activity IC50 values (H2O2 induced pAkt D-U937 Cells). The procedure: As a means of assessing PI3K 6 activation in response to stimuli, the phosphorylation status of the protein, Akt, a downstream product of PI3K6, signaling was determined. Human monocytic cells (U937 cells), were differentiated to macrophage-type cells by incubation with phorbol myristate acetate (PMA; 100 ng/mL) for 48 to 72 hr. […] The cells were washed with buffer (PBS containing 0.1% Triton X-100) and were incubated with blocking solution (1% BSA in PBS) for 1 hr and were then re-washed with buffer and incubated overnight with either anti-pAkt antibody or anti-pan-Akt antibody (both from Cell Signaling Technology). […] This reaction was stopped by addition of 100 μL of 1N H2SO4 solution. […] The ratio of pAkt signal to total Akt signal was used to quantitate the extent of PI3K δ activation. […] The IC50 values were calculated from the concentration-response curves generated by the serial dilutions of the test compounds (Table 3 and Table 4).

In data set [2] the test system is PMA-differentiated U937 cells. The data set can be described thus: MTT Assay (cell viability). It is filed as cell-based, Human. As to conditions: percentage loss of cell viability; for Cell Viability MTT Assay in D-U937 cells at 4 hr: 4 hr in 5% FCS; for Cell Viability MTT Assay in D-U937 cells at 24 hr: 24 hr in 10% FCS. The method, then:
PMA-differentiated U937 cells were pre-incubated with compound for 4 hr in 5% FCS or 10% FCS for 24 hr. The supernatant was replaced with 200 μL of new media and 10 μL of MTT stock solution (5 mg/ml) added to each well. After 1 hr incubation, the media were removed, 200 μL of DMSO added to each well and the plates were shaken lightly for 1 hr prior to reading the absorbance at 550 nm. The percentage loss of cell viability was calculated for each well relative to vehicle (0.5% DMSO)-treatment (Table 3).

recombinant PI3 kinase α, sequence (P42336 whole entry): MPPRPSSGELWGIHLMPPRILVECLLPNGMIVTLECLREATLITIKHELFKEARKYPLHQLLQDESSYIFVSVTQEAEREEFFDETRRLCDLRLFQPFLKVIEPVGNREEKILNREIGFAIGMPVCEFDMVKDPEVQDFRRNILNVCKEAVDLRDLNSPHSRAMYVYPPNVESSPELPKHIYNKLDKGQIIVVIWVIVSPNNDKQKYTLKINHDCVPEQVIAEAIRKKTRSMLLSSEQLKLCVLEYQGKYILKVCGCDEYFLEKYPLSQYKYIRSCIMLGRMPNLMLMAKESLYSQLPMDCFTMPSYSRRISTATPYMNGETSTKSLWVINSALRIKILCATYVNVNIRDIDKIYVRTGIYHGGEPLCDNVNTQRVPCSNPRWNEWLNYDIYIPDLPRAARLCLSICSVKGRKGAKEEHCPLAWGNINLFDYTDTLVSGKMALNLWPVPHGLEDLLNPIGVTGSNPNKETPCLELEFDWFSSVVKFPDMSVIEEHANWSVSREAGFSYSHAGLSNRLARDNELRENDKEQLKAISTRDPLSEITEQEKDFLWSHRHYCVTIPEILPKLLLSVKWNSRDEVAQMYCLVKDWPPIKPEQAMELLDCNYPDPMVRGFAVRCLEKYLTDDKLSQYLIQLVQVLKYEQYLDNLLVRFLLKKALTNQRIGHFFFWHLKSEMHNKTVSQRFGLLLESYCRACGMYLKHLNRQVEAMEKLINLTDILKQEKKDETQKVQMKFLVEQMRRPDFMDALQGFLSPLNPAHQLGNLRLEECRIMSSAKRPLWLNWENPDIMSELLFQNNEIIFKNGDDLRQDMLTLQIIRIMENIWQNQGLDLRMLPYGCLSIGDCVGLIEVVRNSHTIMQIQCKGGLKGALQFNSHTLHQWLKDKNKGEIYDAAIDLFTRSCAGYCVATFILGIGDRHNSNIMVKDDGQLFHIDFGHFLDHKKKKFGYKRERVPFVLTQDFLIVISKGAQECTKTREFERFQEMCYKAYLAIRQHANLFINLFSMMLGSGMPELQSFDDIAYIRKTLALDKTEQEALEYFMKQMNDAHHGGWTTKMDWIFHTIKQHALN
recombinant PI3 kinase α, sequence (P27986 whole entry partner): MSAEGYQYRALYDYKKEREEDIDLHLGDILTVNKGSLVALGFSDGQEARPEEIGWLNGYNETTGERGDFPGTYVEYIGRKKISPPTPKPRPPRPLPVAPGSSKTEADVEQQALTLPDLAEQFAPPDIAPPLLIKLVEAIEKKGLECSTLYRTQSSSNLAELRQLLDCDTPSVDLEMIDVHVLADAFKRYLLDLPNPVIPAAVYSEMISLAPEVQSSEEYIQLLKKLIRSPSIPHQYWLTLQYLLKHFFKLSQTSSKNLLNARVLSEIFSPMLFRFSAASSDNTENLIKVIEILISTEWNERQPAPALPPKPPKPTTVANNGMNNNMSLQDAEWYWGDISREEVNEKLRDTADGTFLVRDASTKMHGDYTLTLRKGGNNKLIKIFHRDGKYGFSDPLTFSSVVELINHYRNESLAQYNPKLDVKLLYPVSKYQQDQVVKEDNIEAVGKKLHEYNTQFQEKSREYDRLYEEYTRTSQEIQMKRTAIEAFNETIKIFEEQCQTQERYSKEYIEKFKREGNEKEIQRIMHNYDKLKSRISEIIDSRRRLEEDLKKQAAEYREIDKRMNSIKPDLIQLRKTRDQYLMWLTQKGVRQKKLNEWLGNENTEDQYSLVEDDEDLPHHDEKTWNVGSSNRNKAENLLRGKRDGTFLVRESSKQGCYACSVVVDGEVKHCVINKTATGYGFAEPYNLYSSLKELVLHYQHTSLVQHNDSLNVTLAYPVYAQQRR
recombinant PI3 kinase δ, sequence (O00329 whole entry): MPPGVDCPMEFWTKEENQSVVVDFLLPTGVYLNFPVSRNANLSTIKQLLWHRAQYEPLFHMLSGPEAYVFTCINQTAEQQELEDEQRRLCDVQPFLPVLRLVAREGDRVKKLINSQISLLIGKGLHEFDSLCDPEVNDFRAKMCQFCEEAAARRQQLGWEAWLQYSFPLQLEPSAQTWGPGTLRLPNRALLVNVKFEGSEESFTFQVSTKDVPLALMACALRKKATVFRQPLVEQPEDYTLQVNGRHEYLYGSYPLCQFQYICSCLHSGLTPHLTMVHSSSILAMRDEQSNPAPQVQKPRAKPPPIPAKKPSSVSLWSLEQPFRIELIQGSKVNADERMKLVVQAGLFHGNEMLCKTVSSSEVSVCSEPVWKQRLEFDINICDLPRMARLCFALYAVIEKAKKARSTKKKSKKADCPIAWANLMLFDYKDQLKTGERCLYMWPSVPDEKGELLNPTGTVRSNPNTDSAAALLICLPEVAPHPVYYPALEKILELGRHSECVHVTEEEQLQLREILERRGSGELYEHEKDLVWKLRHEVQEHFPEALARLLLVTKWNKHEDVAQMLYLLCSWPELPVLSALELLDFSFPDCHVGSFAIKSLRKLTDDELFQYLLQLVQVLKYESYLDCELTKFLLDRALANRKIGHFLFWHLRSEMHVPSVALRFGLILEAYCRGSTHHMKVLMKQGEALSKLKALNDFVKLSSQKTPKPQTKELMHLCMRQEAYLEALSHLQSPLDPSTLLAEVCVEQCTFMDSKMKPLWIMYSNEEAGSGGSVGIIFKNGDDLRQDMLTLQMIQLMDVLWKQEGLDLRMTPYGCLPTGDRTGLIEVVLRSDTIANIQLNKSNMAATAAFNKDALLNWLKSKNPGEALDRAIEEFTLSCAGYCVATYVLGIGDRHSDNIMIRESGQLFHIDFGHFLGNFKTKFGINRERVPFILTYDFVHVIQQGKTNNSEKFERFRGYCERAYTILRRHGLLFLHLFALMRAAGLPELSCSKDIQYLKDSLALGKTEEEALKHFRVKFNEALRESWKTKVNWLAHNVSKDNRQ
recombinant PI3 kinase δ, sequence (P27986 whole entry partner): as the sequence (P27986 whole entry partner) above
recombinant PI3 kinase γ, sequence (P48736 whole entry): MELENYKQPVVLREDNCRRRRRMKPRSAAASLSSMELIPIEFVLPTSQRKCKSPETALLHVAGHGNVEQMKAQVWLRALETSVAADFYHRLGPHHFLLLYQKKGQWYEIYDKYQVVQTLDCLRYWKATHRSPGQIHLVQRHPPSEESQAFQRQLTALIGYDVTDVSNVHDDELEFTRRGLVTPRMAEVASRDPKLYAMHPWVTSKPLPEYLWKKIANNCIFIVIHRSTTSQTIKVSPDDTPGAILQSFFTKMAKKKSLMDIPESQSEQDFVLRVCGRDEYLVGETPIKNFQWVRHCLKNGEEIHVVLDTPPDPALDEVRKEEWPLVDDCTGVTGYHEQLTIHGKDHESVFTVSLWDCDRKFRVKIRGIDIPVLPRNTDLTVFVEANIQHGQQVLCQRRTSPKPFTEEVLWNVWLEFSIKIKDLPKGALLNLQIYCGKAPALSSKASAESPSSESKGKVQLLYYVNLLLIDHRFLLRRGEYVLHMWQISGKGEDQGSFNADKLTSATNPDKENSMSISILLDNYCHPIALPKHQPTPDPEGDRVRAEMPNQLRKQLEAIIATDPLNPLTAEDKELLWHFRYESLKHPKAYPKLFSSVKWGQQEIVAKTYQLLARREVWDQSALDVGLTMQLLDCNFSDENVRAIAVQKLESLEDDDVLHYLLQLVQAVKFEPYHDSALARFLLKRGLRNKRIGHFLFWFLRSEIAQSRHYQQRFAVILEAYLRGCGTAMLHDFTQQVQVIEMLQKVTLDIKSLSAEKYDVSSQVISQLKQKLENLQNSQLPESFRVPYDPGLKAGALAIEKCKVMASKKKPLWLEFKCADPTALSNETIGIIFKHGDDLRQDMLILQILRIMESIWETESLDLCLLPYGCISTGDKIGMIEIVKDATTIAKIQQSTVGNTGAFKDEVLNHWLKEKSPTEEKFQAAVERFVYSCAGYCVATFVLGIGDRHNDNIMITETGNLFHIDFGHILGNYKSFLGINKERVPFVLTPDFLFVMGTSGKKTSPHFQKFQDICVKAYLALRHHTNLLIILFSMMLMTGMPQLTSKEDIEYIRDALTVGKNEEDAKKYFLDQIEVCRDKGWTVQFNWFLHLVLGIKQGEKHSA

Consider `CN(C)C(=O)CCCC#Cc1cccc2nc(Cn3nc(-c4ccc(O)cc4)c4c(N)ncnc43)n(Cc3ccccc3Cl)c(=O)c12` [Example 88, 6-(2-((4-Amino-3-(4-hydroxyphenyl)-1H-pyrazolo[3,4-d]pyrimidin-1-yl)methyl)-3-(2-chlorobenzyl)-4-oxo-3,4-dihydroquinazolin-5-yl)-N,N-dimethylhex-5-ynamide], for which the IC50 at recombinant PI3 kinase α is 50 to 1000 nM; on recombinant PI3 kinase γ it was less than 50 nM; at recombinant PI3 kinase δ it was less than 50 nM; in data set [1] it was less than 10 nM. Moreover, in data set [2], the “Cell Viability MTT Assay in D-U937 cells at 4 hr” value was “− (− <30%)”. Besides, in data set [2], the “Cell Viability MTT Assay in D-U937 cells at 24 hr” value is “− (− <30%)”.
`Cc1nc(Cn2c(Cn3nc(-c4cccc(O)c4)c4c(N)ncnc43)nc3cccc(C#CCCCC(=O)N4CCOCC4)c3c2=O)cs1` [Example 68, 2-((4-Amino-3-(3-hydroxyphenyl)-1H-pyrazolo[3,4-d]pyrimidin-1-yl)methyl)-3-((2-methylthiazol-4-yl)methyl)-5-(6-morpholino-6-oxohex-1-yn-1-yl)quinazolin-4(3H)-one]: the half-inhibitory concentration (IC50) at recombinant PI3 kinase α is 50 to 1000 nM; at recombinant PI3 kinase γ, less than 50 nM; on recombinant PI3 kinase δ, less than 50 nM; in data set [1] it was less than 10 nM. For the same molecule, in data set [2], the “Cell Viability MTT Assay in D-U937 cells at 4 hr” value is “− (− <30%)”. In data set [2], the “Cell Viability MTT Assay in D-U937 cells at 24 hr” value is recorded as “− (− <30%)”.
As for `C#Cc1cccc2nc(Cn3nc(-c4ccc(O)cc4)c4c(N)ncnc43)n(Cc3ccc(Cl)cc3F)c(=O)c12` [Example 35, 2-((4-Amino-3-(4-hydroxyphenyl)-1H-pyrazolo[3,4-d]pyrimidin-1-yl)methyl)-3-(4-chloro-2-fluorobenzyl)-5-ethynylquinazolin-4(3H)-one], the IC50 on recombinant PI3 kinase α was 50 to 1000 nM; on recombinant PI3 kinase γ, 50 to 1000 nM; at recombinant PI3 kinase δ, less than 50 nM; in data set [1], less than 10 nM. Also, the “Cell Viability MTT Assay in D-U937 cells at 4 hr” value in data set [2] is given as “− (− <30%)”. For the same molecule, the “Cell Viability MTT Assay in D-U937 cells at 24 hr” value in data set [2] is reported as “− (− <30%)”.
As to `COC(=O)c1cccc(Cn2c(Cn3nc(-c4cccc(O)c4)c4c(N)ncnc43)nc3cccc(C#CCCCC(=O)N4CCOCC4)c3c2=O)c1` [Example 65, Methyl 3-((2-((4-amino-3-(3-hyroxyphenyl)-1H-pyrazolo[3,4-d]pyrimidin-1-yl)methyl)-5-(6-morpholino-6-oxohex-1-yn-1-yl)-4-oxoquinazolin-3(4H)-yl)methyl)benzoate], the half-inhibitory concentration (IC50) at recombinant PI3 kinase α is 50 to 1000 nM; on recombinant PI3 kinase γ, less than 50 nM; on recombinant PI3 kinase δ, less than 50 nM; in data set [1], less than 10 nM. For the same molecule, the “Cell Viability MTT Assay in D-U937 cells at 4 hr” value in data set [2] is recorded as “− (− <30%)”. For the same molecule, the “Cell Viability MTT Assay in D-U937 cells at 24 hr” value in data set [2] is on record as “− (− <30%)”.
As for `Nc1ncnc2c1c(-c1ccc(O)cc1)nn2Cc1nc2cccc(C#CCCCC(=O)N3CCOCC3)c2c(=O)n1Cc1cc2ccccc2s1` [Example 63, 2-((4-Amino-3-(4-hydroxyphenyl)-1H-pyrazolo[3,4-d]pyrimidin-1-yl)methyl)-3-(benzo[b]thiophen-2-ylmethyl)-5-(6-morpholino-6-oxohex-1-yn-1-yl)quinazolin-4(3H)-one], the IC50 on recombinant PI3 kinase α was 50 to 1000 nM; at recombinant PI3 kinase γ, less than 50 nM; on recombinant PI3 kinase δ it was less than 50 nM; in data set [1], less than 10 nM. In addition, the “Cell Viability MTT Assay in D-U937 cells at 4 hr” value in data set [2] is reported as “− (− <30%)”. Also, in data set [2], the “Cell Viability MTT Assay in D-U937 cells at 24 hr” value was “− (− <30%)”.
On to `Nc1ncnc2c1c(-c1ccc(O)cc1)nn2Cc1nc2cccc(C#CCOc3ccccc3)c2c(=O)n1Cc1ccccc1Cl` [Example 52, 2-((4-Amino-3-(4-hydroxyphenyl)-1H-pyrazolo[3,4-d]pyrimidin-1-yl)methyl)-3-(2-chlorobenzyl)-5-(3-phenoxyprop-1-ynyl)quinazolin-4(3H)-one], for which the concentration for half-maximal inhibition (IC50) was 50 to 1000 nM at recombinant PI3 kinase α, less than 50 nM at recombinant PI3 kinase γ, less than 50 nM on recombinant PI3 kinase δ and less than 10 nM in data set [1]. The “Cell Viability MTT Assay in D-U937 cells at 4 hr” value in data set [2] is “− (− <30%)”. Further, the “Cell Viability MTT Assay in D-U937 cells at 24 hr” value in data set [2] was “− (− <30%)”.
As for `Nc1ncnc2c1c(-c1cccc(O)c1)nn2Cc1nc2cccc(C#CCCCC(=O)N3CCOCC3)c2c(=O)n1Cc1ccc2occc2c1` [Example 67, 2-((4-Amino-3-(3-hydroxyphenyl)-1H-pyrazolo[3,4-d]pyrimidin-1-yl)methyl)-3-(benzofuran-5-ylmethyl)-5-(6-morpholino-6-oxohex-1-yn-1-yl)quinazolin-4(3H)-one], the half-maximal inhibitory concentration (IC50) was 50 to 1000 nM at recombinant PI3 kinase α, less than 50 nM on recombinant PI3 kinase γ, less than 50 nM on recombinant PI3 kinase δ and less than 10 nM in data set [1]. Further, the “Cell Viability MTT Assay in D-U937 cells at 4 hr” value in data set [2] is “− (− <30%)”. Besides, the “Cell Viability MTT Assay in D-U937 cells at 24 hr” value in data set [2] is “− (− <30%)”.
On to `Nc1ncnc2c1c(-c1ccc(O)cc1)nn2Cc1nc2cccc(C#CCCCC(=O)N3CCOCC3)c2c(=O)n1Cc1ccccc1F` [Example 53, 2-((4-Amino-3-(4-hydroxyphenyl)-1H-pyrazolo[3,4-d]pyrimidin-1-yl)methyl)-3-(2-fluorobenzyl)-5-(6-morpholino-6-oxohex-1-yn-1-yl)quinazolin-4(3H)-one], for which the IC50 is less than 50 nM at recombinant PI3 kinase α, less than 50 nM at recombinant PI3 kinase γ, less than 50 nM on recombinant PI3 kinase δ and less than 10 nM in data set [1]. For the same molecule, the “Cell Viability MTT Assay in D-U937 cells at 4 hr” value in data set [2] is “− (− <30%)”. Besides, the “Cell Viability MTT Assay in D-U937 cells at 24 hr” value in data set [2] is on record as “− (− <30%)”.
With `Nc1ncnc2c1c(-c1cccc(O)c1)nn2Cc1nc2cccc(C#CCCNC(=O)N3CCOCC3)c2c(=O)n1Cc1ccccc1Cl` [Example 72, N-(4-(2-((4-Amino-3-(3-hydroxyphenyl)-1H-pyrazolo[3,4-d]pyrimidin-1-yl)methyl)-3-(2-chlorobenzyl)-4-oxo-3,4-dihydroquinazolin-5-yl)but-3-yn-1-yl)morpholine-4-carboxamide], the IC50 at recombinant PI3 kinase α is 50 to 1000 nM; at recombinant PI3 kinase γ, less than 50 nM; on recombinant PI3 kinase δ it was less than 50 nM; in data set [1] it was less than 10 nM. Further, the “Cell Viability MTT Assay in D-U937 cells at 4 hr” value in data set [2] is “− (− <30%)”. Further, in data set [2], the “Cell Viability MTT Assay in D-U937 cells at 24 hr” value is listed as “− (− <30%)”.
In the case of `COCC#Cc1cccc2nc(Cn3nc(-c4cccc(O)c4)c4c(N)ncnc43)n(Cc3ccc(Cl)cc3)c(=O)c12` [Example 26, 2-((4-Amino-3-(3-hydroxyphenyl)-1H-pyrazolo[3,4-d]pyrimidin-1-yl)methyl)-3-(4-chlorobenzyl)-5-(3-methoxyprop-1-ynyl)quinazolin-4(3H)-one], the IC50 was 50 to 1000 nM at recombinant PI3 kinase α, 50 to 1000 nM at recombinant PI3 kinase γ, less than 50 nM on recombinant PI3 kinase δ and less than 10 nM in data set [1]. For the same molecule, the “Cell Viability MTT Assay in D-U937 cells at 4 hr” value in data set [2] is recorded as “− (− <30%)”. Further, the “Cell Viability MTT Assay in D-U937 cells at 24 hr” value in data set [2] was “− (− <30%)”.
As to `CC(=O)N1CCN(C(=O)CCCC#Cc2cccc3nc(Cn4nc(-c5ccc(O)cc5)c5c(N)ncnc54)n(Cc4ccccc4Cl)c(=O)c23)CC1` [Example 71], the IC50 at recombinant PI3 kinase α is 50 to 1000 nM; at recombinant PI3 kinase γ it was less than 50 nM; on recombinant PI3 kinase δ it was less than 50 nM; in data set [1] it was less than 10 nM. The “Cell Viability MTT Assay in D-U937 cells at 4 hr” value in data set [2] is “− (− <30%)”. For the same molecule, the “Cell Viability MTT Assay in D-U937 cells at 24 hr” value in data set [2] is “− (− <30%)”.

One may read the IC50 as the point on the concentration scale where inhibition reaches its midpoint.
